Target: T1, dog PGP (Canis lupus familiaris, UniProt C0KKU9)
T1 construct: expressed in transfected cells; host or cells: LLC-PK1 cells (ATCC), electroporated with the p222CMV episomal vector and selected with hygromycin B
Assay: Polarization of vinblastine transport across dog PGP transfected LLC-PK1 cell monolayers in Transwells
Format: cell-based
Conditions: PGP transfected cells, compared with control cells; vinblastine (0.1 uM) transport in Transwells
Text: Dog PGP cDNA (SEQ ID NO:1) is introduced into a clonal population of LLC-PK1 cells in a vector that confers resistance to hygromycin B. LLC-PK1 cells are obtained from the American Type Culture Collections and are propagated in Medium 199 supplemented to 7% with fetal bovine serum. LLC-PK1 cells are recloned prior to transfection in order to assure homogeneity of the cell population. Briefly, dog PGP cDNA is incorporated into the p222CMV vector. […] The PGP cDNA is under the control of the cytomegalovirus (CMV) immediate early promoter. The vector confers resistance to hygromycin B. Cells (in 0.4 mL) and DNA (10 to 20 μg) were transfected by electroporation using a BTX Electro cell manipulator model 600 using a 2 mm gap cell, 100V, 2500 μF capacitance and 72 ohm resistance. […] Expression of PGP is measured by the polarization of vinblastine (0.1 uM) transport in Transwells™.
LLC-PK1 cell based transport studies are conducted in 24 well Transwells™ (Corning Costar, Catalog number 3415). […] Transport is measured under sink conditions in both the apical to basolateral (A to B) and basolateral to apical (B to A) directions. […] Quantitation of the amount of compound transported is by liquid scintillation counting (vinblastine) or HPLC with UV or mass spectrometric detection.
Functional expression of dog PGP is measured by the polarization of transport of vinblastine.

T1 sequence (C0KKU9 1-1281): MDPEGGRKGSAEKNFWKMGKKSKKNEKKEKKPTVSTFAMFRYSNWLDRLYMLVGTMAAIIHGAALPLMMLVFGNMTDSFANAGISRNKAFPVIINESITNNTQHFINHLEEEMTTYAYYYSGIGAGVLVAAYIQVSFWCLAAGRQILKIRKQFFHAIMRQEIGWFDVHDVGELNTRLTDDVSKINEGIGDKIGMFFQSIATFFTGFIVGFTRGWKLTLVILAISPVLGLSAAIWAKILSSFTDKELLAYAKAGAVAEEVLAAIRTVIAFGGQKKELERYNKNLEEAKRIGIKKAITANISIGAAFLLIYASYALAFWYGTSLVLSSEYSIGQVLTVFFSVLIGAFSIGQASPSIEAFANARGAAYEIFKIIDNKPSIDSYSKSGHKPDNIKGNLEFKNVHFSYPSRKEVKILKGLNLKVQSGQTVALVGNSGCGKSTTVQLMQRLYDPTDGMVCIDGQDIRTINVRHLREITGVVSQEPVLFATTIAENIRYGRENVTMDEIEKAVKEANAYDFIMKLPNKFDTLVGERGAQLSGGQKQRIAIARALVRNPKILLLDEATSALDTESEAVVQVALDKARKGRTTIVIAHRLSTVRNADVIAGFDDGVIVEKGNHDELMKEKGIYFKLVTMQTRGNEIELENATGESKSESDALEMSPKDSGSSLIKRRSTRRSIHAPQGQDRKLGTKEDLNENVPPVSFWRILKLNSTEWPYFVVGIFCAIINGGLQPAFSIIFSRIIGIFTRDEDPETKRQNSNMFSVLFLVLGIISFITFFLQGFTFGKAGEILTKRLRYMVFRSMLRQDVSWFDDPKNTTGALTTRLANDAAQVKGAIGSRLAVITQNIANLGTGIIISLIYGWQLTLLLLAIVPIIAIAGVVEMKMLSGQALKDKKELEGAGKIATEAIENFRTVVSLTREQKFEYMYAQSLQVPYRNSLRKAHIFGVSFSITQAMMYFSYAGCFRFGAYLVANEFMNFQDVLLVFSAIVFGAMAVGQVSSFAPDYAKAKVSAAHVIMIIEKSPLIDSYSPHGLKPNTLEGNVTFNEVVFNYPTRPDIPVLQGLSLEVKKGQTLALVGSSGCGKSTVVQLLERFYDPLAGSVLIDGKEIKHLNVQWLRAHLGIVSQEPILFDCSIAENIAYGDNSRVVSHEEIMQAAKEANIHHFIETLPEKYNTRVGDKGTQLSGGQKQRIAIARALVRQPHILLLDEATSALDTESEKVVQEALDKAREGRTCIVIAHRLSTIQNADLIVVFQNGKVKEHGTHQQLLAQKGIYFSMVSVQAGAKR

B to A/A to B ratio: much higher ratio
SMILES: CC[C@]1(O)C[C@@H]2CN(CCc3c([nH]c4ccccc34)[C@@](C(=O)OC)(c3cc4c(cc3OC)N(C)[C@H]3[C@@](O)(C(=O)OC)[C@H](OC(C)=O)[C@]5(CC)C=CCN6CC[C@]43[C@@H]65)C2)C1 [vinblastine]

Reference: US6753177B1, “P-glycoproteins and uses thereof” (Becton Dickinson and Company, priority 1999, dated 2004)
